Assay [1] concerns the target T1, methionine adenosyltransferase 2A (MAT2A) (Homo sapiens, UniProt P31153). In words: HPLC SAM synthesis assay with purified MAT2A. The class given is biochemical.
Assay [2] addresses T1, methionine adenosyltransferase 2A (MAT2A). The assay can be described thus: microscale thermophoresis. It is filed as binding. (In MST a laser heats a spot of the sample, and binding alters the fluorescence response.)

T1 sequence (P31153 whole entry): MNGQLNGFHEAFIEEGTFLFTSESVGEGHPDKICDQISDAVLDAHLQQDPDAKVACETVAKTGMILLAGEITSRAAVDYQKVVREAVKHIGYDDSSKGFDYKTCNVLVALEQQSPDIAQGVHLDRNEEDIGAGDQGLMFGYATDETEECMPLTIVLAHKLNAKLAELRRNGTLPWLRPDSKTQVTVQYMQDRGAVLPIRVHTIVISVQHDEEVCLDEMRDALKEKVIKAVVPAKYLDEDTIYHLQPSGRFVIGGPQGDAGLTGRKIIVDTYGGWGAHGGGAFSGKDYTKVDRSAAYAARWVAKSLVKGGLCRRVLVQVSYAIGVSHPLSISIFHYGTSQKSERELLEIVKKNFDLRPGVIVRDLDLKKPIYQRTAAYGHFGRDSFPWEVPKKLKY

For the molecule `Nc1ncnc2c1ncn2[C@@H]1O[C@H](COP(=O)(O)OP(=O)(O)OP(=O)(O)O)[C@@H](O)[C@H]1O` [ATP], in assay [1], the “HPLC SAM synthesis assay with purified MAT2A” value is “MAT2A was incubated with its substrates which were methionine and ATP, and SAM was formed”.

By Kd is commonly meant the constant that tells how readily two partners part at equilibrium. Read a high Kd as weaker binding. The molecule `CC(=O)O[C@@H]1CC[C@@]2(C)[C@@H](CC[C@]3(C)[C@@H]2C(=O)C=C2[C@@H]4[C@@H](C)[C@H](C)CC[C@]4(C)CC[C@]23C)[C@@]1(C)C(=O)O` [compound 1, AKBA] returned a Kd in assay [2] of 129 ± 28 nM.

On to `CSCC[C@H](N)C(=O)O` [methionine], for which the “HPLC SAM synthesis assay with purified MAT2A” value in assay [1] is “MAT2A was incubated with its substrates which were methionine and ATP, and SAM was formed”.

Values taken from publication PMC6355826 (EBioMedicine, 2018).
